From the supplement of paper PMC10307832

Columns and labels:
Assay in all cases: relative viability (nuclei count vs DMSO), 5 days (fraction); higher = more cells survive
[1] = compound: COc1cc2nccc(Oc3ccc(NC(=O)C4(C(=O)Nc5ccc(F)cc5)CC4)cc3)c2cc1OC [Cabozantinib] + CS(=O)(=O)N1CCN(Cc2cc3nc(-c4cccc5[nH]ncc45)nc(N4CCOCC4)c3s2)CC1 [Pictilisib] (partner 1 µM)
Procedure, shortened: (§1)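 Relative viability divides the nuclei count in treated wells by that in vehicle wells. Lung cancer cell lines were seeded in 1536-well plates, dosed by pin tool the next day, and fixed and stained after 5 days in one step with final 0.05% Triton X-100, 1% formaldehyde and 1 ug/ml Hoechst. Dosing was a single drug or a fixed anchor-drug dose plus five library-drug doses (not always all listed) in √10 steps, and values are medians of duplicate plates imaged at 4×.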

Kobe2602 + Trametinib = compound: C1=CC(=CC=C1NC(=S)NNC2=C(C=C(C=C2[N+](=O)[O-])C(F)(F)F)[N+](=O)[O-])F [Kobe2602] + CC(=O)Nc1cccc(-n2c(=O)n(C3CC3)c(=O)c3c(Nc4ccc(I)cc4F)n(C)c(=O)c(C)c32)c1 [Trametinib] (partner 0.02 µM)
Procedure, shortened: as §1

Cabozantinib + Olaparib = compound: COc1cc2nccc(Oc3ccc(NC(=O)C4(C(=O)Nc5ccc(F)cc5)CC4)cc3)c2cc1OC [Cabozantinib] + O=C(c1cc(Cc2n[nH]c(=O)c3ccccc23)ccc1F)N1CCN(C(=O)C2CC2)CC1 [Olaparib] (partner 8 µM)
Procedure, shortened: as §1

Kobe2602 + Crizotinib = compound: C1=CC(=CC=C1NC(=S)NNC2=C(C=C(C=C2[N+](=O)[O-])C(F)(F)F)[N+](=O)[O-])F [Kobe2602] + C[C@@H](Oc1cc(-c2cnn(C3CCNCC3)c2)cnc1N)c1c(Cl)ccc(F)c1Cl [Crizotinib] (partner 1 µM)
Procedure, shortened: as §1

| Cell Line | relative viability ([1]; first compound 0.02 µM) | relative viability ([1]; first compound 0.06325 µM) | relative viability ([1]; first compound 0.2 µM) | relative viability ([1]; first compound 0.6325 µM) | relative viability ([1]; first compound 2 µM) | relative viability (Kobe2602 + Trametinib; first compound 0.2 µM) | relative viability (Kobe2602 + Trametinib; first compound 0.6325 µM) | relative viability (Kobe2602 + Trametinib; first compound 2 µM) | relative viability (Kobe2602 + Trametinib; first compound 6.325 µM) | relative viability (Kobe2602 + Trametinib; first compound 20 µM) | relative viability (Cabozantinib + Olaparib; first compound 0.02 µM) | relative viability (Cabozantinib + Olaparib; first compound 0.06325 µM) | relative viability (Cabozantinib + Olaparib; first compound 0.2 µM) | relative viability (Cabozantinib + Olaparib; first compound 0.6325 µM) | relative viability (Cabozantinib + Olaparib; first compound 2 µM) | relative viability (Kobe2602 + Crizotinib; first compound 0.2 µM) | relative viability (Kobe2602 + Crizotinib; first compound 0.6325 µM) | relative viability (Kobe2602 + Crizotinib; first compound 2 µM) | relative viability (Kobe2602 + Crizotinib; first compound 6.325 µM) | relative viability (Kobe2602 + Crizotinib; first compound 20 µM) |
| --- | --- | --- | --- | --- | --- | --- | --- | --- | --- | --- | --- | --- | --- | --- | --- | --- | --- | --- | --- | --- |
| EKVX | 0.483 | 0.448 | 0.344 | 0.418 | 0.367 | 0.38 | 0.366 | 0.288 | 0.298 | 0.319 | 1.04 | 1.01 | 0.792 | 0.969 | 0.805 | 1.11 | 0.705 | 0.865 | 0.887 | 0.956 |
| NCI-H1666 | 0.404 | 0.4 | 0.396 | 0.503 | 0.439 | 0.824 | 0.836 | 0.766 | 0.89 | 0.808 | 0.821 | 0.802 | 0.719 | 0.715 | 0.732 | 0.919 | 1.01 |  | 1 | 0.746 |
| HCC-15 | 0.785 | 0.762 | 0.69 | 0.719 | 0.799 | 0.34 | 0.397 | 0.362 | 0.386 | 0.387 | 0.745 | 0.755 | 0.73 | 0.719 | 0.692 | 0.747 | 0.803 | 0.727 | 0.769 | 0.752 |
| LCLC-103H | 0.524 | 0.622 | 0.58 | 0.606 | 0.528 | 0.651 | 0.731 | 0.674 | 0.73 | 0.644 | 0.77 | 0.796 | 0.779 | 0.79 | 0.729 | 1.04 | 1.02 | 1.07 | 1.02 | 1.18 |
| NCI-H2405 |  | 0.496 | 0.602 | 0.422 | 0.439 | 0.644 | 0.712 | 0.621 | 0.66 | 0.669 | 0.859 | 1.01 | 0.931 | 0.899 | 0.804 | 0.853 | 0.916 | 0.827 | 0.91 | 0.786 |
| NCI-H1915 | 0.929 | 1.04 | 0.903 | 0.949 | 0.908 | 0.291 | 0.312 | 0.292 | 0.312 | 0.346 | 0.296 | 0.28 | 0.283 | 0.239 | 0.255 | 0.886 | 0.92 | 0.897 | 0.931 | 0.91 |
| NCI-H661 | 0.301 | 0.476 | 0.391 | 0.394 | 0.331 | 0.554 | 0.594 | 0.594 | 0.622 | 0.522 | 0.786 | 0.79 | 0.779 | 0.875 | 0.825 | 0.933 |  | 0.971 | 1.06 | 1.1 |
| NCI-H1650 | 0.515 | 0.709 | 0.606 | 0.536 | 0.532 | 0.724 | 0.525 | 0.59 | 0.536 | 0.586 | 0.831 | 0.958 | 0.713 | 0.753 | 0.809 | 0.913 | 1.01 | 0.92 | 1.07 | 1.05 |
| NCI-H647 | 0.434 | 0.571 | 0.481 | 0.362 | 0.398 | 0.383 | 0.474 | 0.505 | 0.425 | 0.494 | 0.715 | 0.656 | 0.523 | 0.537 | 0.51 | 1.2 | 1.24 | 0.887 | 1.07 | 1.03 |
| HCC-366 | 0.0953 | 0.105 | 0.158 | 0.0782 | 0.113 | 0.284 | 0.386 | 0.31 | 0.297 | 0.302 | 0.597 | 0.464 | 0.395 | 0.4 | 0.335 | 0.434 | 0.597 | 0.494 | 0.569 | 0.655 |
| NCI-H2087 | 1.01 | 0.976 | 0.906 | 1.01 | 0.854 | 0.29 | 0.188 | 0.173 | 0.196 | 0.191 | 0.702 | 0.643 | 0.622 | 0.523 | 0.605 | 0.671 | 0.766 | 0.922 | 0.786 | 0.802 |
| SK-LU-1 |  | 0.857 | 0.519 | 0.481 | 0.529 | 0.519 | 0.506 | 0.469 | 0.439 | 0.58 | 0.605 | 0.559 | 0.488 | 0.437 | 0.38 | 0.94 | 0.944 | 0.965 | 1.06 | 0.924 |
| HOP-62 | 0.959 | 0.707 | 1.08 | 0.57 | 0.683 | 0.446 | 0.39 | 0.355 | 0.415 | 0.415 | 0.435 | 0.406 | 0.608 | 0.602 | 0.575 | 0.803 | 0.9 | 0.961 | 0.873 | 0.962 |
| NCI-H2126 | 0.442 | 0.52 | 0.465 | 0.544 | 0.547 | 0.594 | 0.598 | 0.52 | 0.577 | 0.459 | 0.937 | 0.932 | 0.865 | 0.938 | 0.946 | 1.01 | 1.06 | 0.962 | 1.01 | 0.912 |
| NCI-H441 | 0.459 | 0.512 | 0.49 | 0.581 | 0.404 | 0.509 | 0.496 | 0.472 | 0.433 | 0.54 | 0.787 | 0.664 | 0.615 | 0.59 | 0.703 | 0.719 | 0.662 | 0.606 | 0.876 | 0.713 |
| NCI-H2170 | 0.259 | 0.321 | 0.274 | 0.376 | 0.296 | 0.982 | 0.918 | 0.921 | 0.878 | 0.922 | 0.66 | 0.682 | 0.538 | 0.576 | 0.684 | 1.22 | 1.21 | 1.14 | 1.31 | 1.13 |
